Reference: article PMC3176295 (Bioorganic & medicinal chemistry, 2011)

Columns and labels:
EphE (Rv3670) = EphE (Rv3670) (Mycobacterium tuberculosis, UniProt O69638); assay: EphE inhibition, fluorescent assay with Epoxy Fluor 7; format: biochemical, M. tuberculosis; conditions: for inhibition at 0.01 µM: read-out: % EphE Inhibition at 10 nM, inhibitor 10 nM, substrate 5 μM, duplicate; for EphE activity in words: 10 nM; for % EphE Inhibition at 10 nM: inhibitor 10 nM, substrate 5 μM, duplicate
M. tuberculosis H37Rv = assay: MIC determination by microbroth dilution against M. tuberculosis; format: cell-based, Mycobacterium tuberculosis; conditions: for antitubercular activity / MIC in words: M. tuberculosis
EphB (Rv1938) = EphB (Rv1938) (Mycobacterium tuberculosis, UniProt I6YC03); format: biochemical; conditions: 10 nM
Chain of EphB (Rv1938) (I6YC03 whole entry): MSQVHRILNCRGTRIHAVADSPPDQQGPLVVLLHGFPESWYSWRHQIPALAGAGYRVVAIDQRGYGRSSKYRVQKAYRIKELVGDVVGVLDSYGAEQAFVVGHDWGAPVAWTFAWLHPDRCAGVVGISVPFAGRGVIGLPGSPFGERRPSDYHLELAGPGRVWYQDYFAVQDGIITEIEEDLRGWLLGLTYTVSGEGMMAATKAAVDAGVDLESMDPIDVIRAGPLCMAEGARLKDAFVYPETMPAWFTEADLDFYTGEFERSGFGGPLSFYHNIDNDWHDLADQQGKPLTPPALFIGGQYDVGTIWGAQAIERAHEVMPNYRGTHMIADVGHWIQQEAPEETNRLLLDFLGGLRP

SMILES | antitubercular activity / MIC in words (M. tuberculosis H37Rv) | EphB inhibition in words (EphB (Rv1938)) | EphE activity in words (EphE (Rv3670)) | also measured
O=C(Nc1ccc(F)c(F)c1F)NC1C2CC3CC(C2)CC1C3 (stereo not shown) [Compound 1, 1-(2-Adamantyl)-3-(2,3,4-trifluorophenyl)urea] | – | – | – | inhibition at 0.01 µM (EphE (Rv3670)): > 70%
O=C(NCC12CC3CC(CC(C3)C1)C2)Nc1ccc(F)c(F)c1F [Compound 3, 1-(1-(1-Adamantyl)methyl)-3-(2,3,4-trifluorophenyl)urea] | good MIC values | relatively poor EphB inhibition | good EphE activity | % EphE Inhibition at 10 nM (EphE (Rv3670)): > 70%
N#Cc1ccc(NC(=O)NC2C3CC4CC(C3)CC2C4)cc1 (stereo not shown) [Compound 10, 1-(2-Adamantyl)-3-(4-cyanophenyl)urea] | good MIC values | relatively poor EphB inhibition | good EphE activity | –
O=C(NCCc1ccccc1)NC1C2CC3CC(C2)CC1C3 (stereo not shown) [Compound 11, 1-(2-Adamantyl)-3-phenethylurea] | good MIC values | relatively poor EphB inhibition | good EphE activity | inhibition at 0.01 µM (EphE (Rv3670)): > 70%
CCCCCCNC(=O)NC1C2CC3CC(C2)CC1C3 (stereo not shown) [Compound 20, 1-(2-Adamantyl)-3-hexylurea] | good MIC values | relatively poor EphB inhibition | good EphE activity | % EphE Inhibition at 10 nM (EphE (Rv3670)): > 70%
Cc1ccc(NC(=O)NCC23CC4CC(CC(C4)C2)C3)cc1Cl [Compound 22, 1-(1-(1-Adamantyl)methyl)-3-(3-chloro-4-methylphenyl)urea] | good MIC values | relatively poor EphB inhibition | good EphE activity | –
Cc1ccc(NC(=O)NC2CCCCCCC2)cc1Cl [Compound 24, 1-(3-Chloro-4-methylphenyl)-3-cyclooctylurea] | – | – | – | % EphE Inhibition at 10 nM (EphE (Rv3670)): > 70%
Fc1ccc(NC(=S)NC2C3CC4CC(C3)CC2C4)c(F)c1F (stereo not shown) [Compound 31, 1-(2-Adamantyl)-3-(2,3,4-trifluorophenyl)thiourea] | – | – | – | fold decrease in MIC activity (M. tuberculosis H37Rv; thiourea versus urea 1): 80 fold
O=C(Nc1ccc(F)c(F)c1F)OC1C2CC3CC(C2)CC1C3 (stereo not shown) [Compound 32, 2-Adamantyl 2,3,4-trifluorophenylcarbamate] | – | – | – | additional fold decrease in anti-M. tuberculosis potency (M. tuberculosis H37Rv; carbamate, additional to the decrease of thiourea 31): 10 fold
COc1ccc(NC(=O)NC2C3CC4CC(C3)CC2C4)cc1 (stereo not shown) [Compound 35, 1-(2-Adamantyl)-3-(4-methoxyphenyl)urea] | good antitubercular activity | – | – | –
COC(=O)c1ccc(NC(=O)NC23CC4CC(CC(C4)C2)C3)cc1O [Compound 36, Methyl 4-(3-(1-adamantyl)ureido)-2-hydroxybenzoate] | good antitubercular activity | – | – | –
CC(C)CCOc1ccc(NC(=O)Nc2ccc(OCCC(C)C)cc2)cc1 [Compound 41, 1,3-Bis(4-(isopentyloxy)phenyl)urea] | inactive | – | – | –
